The values that follow come from ChEMBL document CHEMBL3507680, “University of Dundee, Gates Library screen for HepG2 cell viability”.

A short description of the data set: Human HepG2 cell viability assay in 384 well format. It counts as toxicity, cell-based. Details: dose 125 nL, time 70.5 hour; concentration not given beside the values. As to conditions: HepG2 cells, read-out: Inhibition.
For the compound `COC(=O)NCC(=O)N1CCCn2nc(CN3CC[C@H](F)C3)cc2C1`, the cytotoxicity at 70.5 h was -3.88%.
As for `CCn1ccc(-c2cc(NCCCOc3ccccc3C)nc(C)n2)n1`, the cytotoxicity at 70.5 h was -1.9%.
Regarding `O=C(CCc1cc2n(n1)CCN(CCCn1cccc1)C2)N1CCCC1`, the cytotoxicity at 70.5 h was -10.4%.
The same measure for `O=C(NCC1OCCc2cn(CC3CCOCC3)nc21)c1ccncc1` (centres undefined): -10.6%.
On to `CN(Cc1cc2n(n1)CCCN(C(=O)N1CCCC1)C2)Cc1nccs1`, for which the cytotoxicity at 70.5 h turned out to be 24.4%.
In the case of `COCCN1CCC2(CC1)CC(NC(=O)CN(C)C)c1ccccc1O2` (centres undefined), the cytotoxicity at 70.5 h is -6.88%.
Then `CCO[C@@H]1CO[C@@]2(CCCN(S(=O)(=O)c3cccnc3)C2)C1`, with -17.7%; and `O=C(NCCn1ccnc1)C1COCC(=O)N1Cc1ccccc1` (centres undefined), with 9.74%.
Then `COCc1nc(C(=O)NS(=O)(=O)c2ccc(C)s2)cs1`, with -4.27%; and `N#Cc1ccc(NC(=O)N2CCCCC2CN2CCCC2=O)cc1` (centres undefined), with -11%.
Then `COc1cccc(F)c1-c1nc2c([nH]1)c(C1CC1)nn2C`, with 10.5%; and `COc1cccc(NC(=O)NCC(O)c2ccc(F)cc2F)c1` (centres undefined), with -6.35%; and `Oc1cc(CNCCN2CCCCC2)nc2c(F)cccc12`, with 24.5%.
Take `Cc1cc(NC(=O)NCC2COc3ccccc3C2)no1` (centres undefined): the cytotoxicity at 70.5 h is 52%.
Then `c1cc(CN2CCSC3(CCCCC3)C2)no1`, with -1.3%; and `COc1ccc(CN2CC[C@@H](O)[C@@H]2Cc2cnn(C)c2)cc1`, with 21.7%; and `COc1cccc2c1OCC(NCCCOc1cccnc1)C2` (centres undefined), with -5.15%.
Then `CCN(CC(F)(F)F)C(=O)C1CCCN(Cc2ccccn2)C1` (centres undefined), with -3.97%; and `Cc1nc2cc(NCc3cnn(C)c3)ccc2n1C`, with -2.05%.
`CS(=O)(=O)N1CCC(NC(=O)COc2ccccc2Cl)CC1`: the cytotoxicity at 70.5 h was -3.89%.
The same measure for `COc1cccc(-n2nc(C(C)=O)c(C(C)=O)c2C)c1`: -15.4%; for `O=C(c1cnccn1)N1CC[C@H]2C[C@@H](c3ccncn3)O[C@@H]2C1`: -11.7%.
Then `CC(C)Sc1ccc(C(C)NC(=O)CNS(C)(=O)=O)cc1` (centres undefined), with 17%.
The same measure for `C=C(C)COc1cccc(CNCCc2c[nH]cn2)c1`: -6.28%; for `CNC(=O)[C@H]1C[C@@H]2CN(C(=O)Nc3ccccc3)C[C@H]1O2`: -25.2%.
Turning to `CN(CC1(O)CCCN(Cc2cccc(F)c2F)C1=O)C1CCCCC1` (centres undefined), the cytotoxicity at 70.5 h was -0.975%.
The same measure for `O=C(NCC1CC1)C1=NOC2(CCN(Cc3ccc(Cl)c(F)c3)C2)C1` (centres undefined): -7.64%.
Regarding `COCCN(Cc1ccccn1)C(=O)CC1OCCc2sccc21` (centres undefined), the cytotoxicity at 70.5 h is -9.62%.
The same measure for `CN(Cc1ccc([S+](C)[O-])cc1)c1cncc(Cl)n1` (centres undefined): -15.4%; for `CN(C)S(=O)(=O)NCc1nn(CCN2CCCC2)c(=O)c2ccccc12`: -12.7%; for `O=C(Nc1nncs1)N1CCCN(C2CCCC2)CC1`: 18.5%.
Then `CN1CCN(C2COC3(CCN(c4ccc(C#N)cc4)CC3)C2)CC1` (centres undefined), with -6.07%; and `CC(Nc1cnn(C)c(=O)c1Cl)c1ccc(F)c(F)c1` (centres undefined), with 39.8%; and `CCOc1ccc(C#N)cc1NCC(=O)Nc1cc(C)no1`, with -14.1%.
Take `Cc1ccccc1CS(=O)(=O)CC(=O)N(C)Cc1cccc(F)c1`: the cytotoxicity at 70.5 h was -6.34%.
Then `Cc1nc2sccn2c1C(=O)N1CCc2c(nc(N)[nH]c2=O)C1`, with -4.21%; and `Cc1noc(C)c1CN1C[C@@H]2OCCN(Cc3cnn(C)c3)[C@@H]2C1`, with -21.6%.
Then `Cc1ccccc1CN1CCN(C(C)c2nc(C3CC3)no2)CC1` (centres undefined), with 17%; and `CCOCC(=O)N1CC[C@H]2OCC[C@@]2(COc2ncccc2F)C1`, with -12%; and `C=C(C)CN1CCC(NC(=O)NCCc2ccc(N(C)C)cc2)CC1`, with 12.7%.
The same measure for `Cc1cnn(CCC(=O)N2CCCC(c3ccn[nH]3)C2)c1` (centres undefined): -1.8%; for `NC(=O)NCC(=O)N1C[C@H]2CC[C@@H]1CN(C1Cc3ccccc3C1)C2`: -10.1%; for `O=C(C[C@H]1[C@H]2CN(C(=O)c3cccnc3)C[C@@H]12)Nc1cccnc1`: -1.44%.
For the compound `Cc1ccc(-c2nc(CCNC(=O)NC3CCC(O)CC3)co2)cc1` (centres undefined), the cytotoxicity at 70.5 h turned out to be 0.284%.
The same measure for `CN(C)[C@@H]1CN(C(=O)Cc2ccsc2)[C@@H]2CCCO[C@H]12`: 16.1%.
The same measure for `CCCC1(CNCc2ncc[nH]2)CCC1`: -8.95%; for `CCc1n[nH]c(C2CN(Cc3csc(COC)n3)CCO2)n1` (centres undefined): -7.86%; for `Cc1nn(CC(=O)NCc2cc3n(n2)CCCN(CC(C)C)C3)cc1Cl`: 9.44%.
For the compound `Cc1cc(NC(=O)CCN2CCCCC2Cn2cncn2)no1` (centres undefined), the cytotoxicity at 70.5 h was -15.1%.
Then `CCOC1COC2(CCN(Cc3ccc(C)c(C)c3)CC2)C1` (centres undefined), with -11%; and `Cc1cc(CN2CCN(C(=O)NCc3ccc(C)s3)CC2)on1`, with -2.93%.
Then `COCC(=O)N1CCCN(Cc2cc(C(C)C)no2)CC1`, with 12.3%; and `O=C1C(Nc2nccn3cnnc23)CCN1c1cccc(Cl)c1` (centres undefined), with -11.2%.
The same measure for `CCOCC1CCN(C(=O)C(c2cccc(F)c2)N(C)C)CC1` (centres undefined): 27.9%; for `CN1CCCN(C(=O)NCc2cccnc2-n2cccn2)CC1`: -0.342%; for `CCOCC(=O)N1CC(=O)Nc2cc(Br)ccc21`: -6.53%.
Turning to `O=C(c1nc(=O)[nH][nH]1)N1CCCCCC1`, the cytotoxicity at 70.5 h was -1.45%.
The same measure for `O=C(NC1CCCC1)c1nc2c(o1)CN(C(=O)CO)C2`: -1.18%.
The same measure for `O=C(CCNC(=O)N1CCC(c2ccccc2)C1)N1CCCCC1` (centres undefined): -13%; for `Cc1cc(F)c(S(=O)(=O)NCC(C)(C)N)cc1F`: -10.9%.
The same measure for `O=C(C1CCC2(CCN(Cc3cccnc3)CC2)CO1)N1CCCC1` (centres undefined): -7.42%.
For the compound `Cc1cc(C(=O)N2CCc3nnc(N(C)C)cc3C2)c(C)n1C1CC1`, the cytotoxicity at 70.5 h was -3.63%.
For the compound `CS(=O)(=O)NC[C@]12COC[C@H]1CN(C(=O)N1CCCC1)C2`, the cytotoxicity at 70.5 h was -4.24%.
The same measure for `Cc1nc(C)n(CC2CN(CCOCC(F)(F)F)CCO2)n1` (centres undefined): -17.5%; for `CC1CCN(C(=O)c2ccn(COc3ccccc3)n2)CC1`: -4.91%; for `CCCc1nnsc1C(=O)NCC(O)c1cccs1` (centres undefined): -6.4%.
For `Cn1ccc2c(-c3cc(N)nc(N4CCOCC4)n3)ccnc21`, the cytotoxicity at 70.5 h was 1.46%.
Then `Cc1nc(CN2CCN(C(C)c3nc(C4CC4)no3)CC2)oc1C` (centres undefined), with -3.6%.
Then `CC(C)(C)SCCCC(=O)N1CCC(Nc2cccnn2)CC1`, with -6.39%; and `COCCNC(=O)[C@H]1CN(Cc2sccc2C)C[C@H]2OCC[C@@H]12`, with 7.63%.
Then `Cn1cccc1CN1CCc2ncnc(-c3cccnc3)c2CC1`, with -4.34%; and `O=C(Nc1ccc(F)cc1F)NC1(CO)CCOCC1`, with -4.4%; and `CCn1cc(-c2nn3c(C(F)(F)F)nnc3s2)c(C)n1`, with -3.8%.
With `CN1CCC(N(CCc2ccccc2)C(=O)c2cc[nH]c2)CC1`, the cytotoxicity at 70.5 h is -7.32%.
Then `CC1CCN(C(=O)c2cn(-c3ccc(C(F)(F)F)cn3)nn2)CC1`, with -0.268%; and `COCCN(C)C(=O)NCCc1coc(-c2ccc(C)cc2)n1`, with 7.28%; and `Cc1cc(-c2cnc(N3CCN(C)CC3)nc2-c2ccc(C)s2)on1`, with 6.38%.
Then `Cc1cc(CNC(=O)[C@H]2CCCCN2C(=O)OC(C)(C)C)on1`, with -1.11%; and `Cc1cc(C(=O)N2CCCC2c2noc(C(C)C)n2)c(C)o1` (centres undefined), with -3.94%; and `CC(C)Cc1nnc(NCc2ccsc2)o1`, with -5.09%.
Then `CC(=O)N1CCC(c2cncc(Oc3ccccc3)n2)CC1`, with -2.89%; and `COCCNC(=O)c1sc2ccccc2c1C1CCC(CN)CC1` (centres undefined), with -1.66%.
For `NC1CCCN(Cc2cccc(C(F)(F)F)c2)C1=O` (centres undefined), the cytotoxicity at 70.5 h is -7.1%.
The same measure for `Cc1cccc(N2CCC3(CCCN(C(=O)Cc4cccnc4)C3)C2)n1` (centres undefined): 21.3%.
With `CSC(C)C(=O)N1CCCN(Cc2cnn(C(C)C)c2)CC1` (centres undefined), the cytotoxicity at 70.5 h is -12%.
With `CCCOC(=O)NCCC1CN(c2cnn(C)c(=O)c2)CCO1` (centres undefined), the cytotoxicity at 70.5 h was -10.5%.
The same measure for `COc1ccc(OCCc2nnc(NC(C)=O)s2)cc1`: -4.39%.
Then `COCCN1C[C@H]2CCN(c3ncccn3)CC[C@H]2S1(=O)=O`, with -3.17%; and `COc1cc(CNC(=O)Nc2nnc(C(C)C)s2)ccc1O`, with -10.5%; and `Cc1cccc(Cn2c(=O)[nH]c3csnc3c2=O)c1`, with -4.48%.
For `COc1ccc(C(C)(C)C)cc1CN1CCn2c(CO)nnc2C1`, the cytotoxicity at 70.5 h worked out at 6.88%.
The same measure for `CC(CNC1CCN(Cc2ccncc2)CC1)c1ccc(F)cc1F` (centres undefined): -11%; for `CCc1nc(CN2CCCN(C(=O)C(C)n3ccnc3)CC2)cs1` (centres undefined): -9%.
Then `CN(C)CCN1C(=O)CCC12CCN(C(=O)CC1CC1)CC2`, with -6.33%; and `O=C(CNCCn1cccn1)NCC1(c2ccccc2)CCC1`, with 1.86%.
Take `Cc1nc(CN2CCCN(C(=O)CC(C)n3cccc3)CC2)cs1` (centres undefined): the cytotoxicity at 70.5 h is -12.7%.
Then `CC[C@@H]1N(CC2CC2)CCC[C@]12CCC(=O)N2CCOC`, with -9.87%.
The same measure for `Cc1cc(Br)ccc1CNC(=O)C1(O)CCSCC1`: 9.16%; for `Cc1cnn(CC2CCCN2Cc2nccn2C)c1` (centres undefined): 13.6%.
